Experimental data reported in patent US11312680B2, “Method for treating a patient having a colon cancer” (King Abdulaziz University, priority 2019, dated 2022).

How the values were obtained:
[1] = system: HCT116 colon cancer cells; assay: MTT viability assay against HCT-116 cells; assay type: cell-based, human
Procedure: (§1) The KAC compounds were evaluated for antiproliferative effect against HCT-116 and MCF7 cell lines using the MTT viability assay and to calculate the relative IC50 values for each compound. Cells were seeded in triplicate in 96-well plates at a density of 10×10^3 cells/mL in a total volume of 100 μL per well and allowed to adhere overnight. Cells were treated with various concentrations of tested KAC compounds or 0.1% of DMSO (vehicle) for 27 h. Then the medium was discarded and 100 μL per well of MTT (5 mg/mL in PBS) containing medium was added. After incubation at 37° C. for 3 h, the MTT-containing medium was replaced by DMSO (100 μL per well) to dissolve the formazon crystal and incubated for 10 min. Absorbance of the solution was measured by microplate reader at […]. The IC50 values were calculated according to the dose-dependent curves using GraphPad prism, version 5.0. All the experiments were repeated in at least three independent experiments.

HCT-116 cells = assay: Cell cycle analysis of HCT-116 cells (propidium iodide flow cytometry); assay type: cell-based, human; settings: for cell cycle effect: HCT-116, 24 and 48 hours; for apoptosis: HCT-116, positive controls at 1 μM; for apoptosis / cells in G2/M phase / apoptosis, population in the sub-G1 phase: 48 h; for percentage of cells in G2/M phase: 24 h, control 9.0%; for apoptosis, population in the sub-G1 phase: control 0.9%
Procedure: Flow cytometric analysis was used to determine DNA level in any given cell that has been stained with propidium iodide (PI). PI is a fluorescent DNA intercalating agent which binds stoichiometrically to nucleic acid. When bounded to DNA, its fluorescence intensity increases 20 fold (excitation 488 nm and emission 600 nm). As cells pass singly through a beam of light their cell cycle state is analyzed. The fluorescent intensity of DNA-bound PI correlates to the DNA content of the cell. This allows the cell population in G1 phase (diploid −2n), G2M phase (4n), or S phase (2n-4n) to be differentiated by plotting a histogram of the PI fluorescence versus cell counts (linear scale). G1 and G2M can be seen as distinct peaks, with the S phase shown as the population between these two peaks. Apoptotic cells are hypo-diploid (pre-G1) and have a low PI fluorescence due to DNA fragmentation [Riccardi, C.; Nicoletti, I., Analysis of apoptosis by propidium iodide staining and flow cytometry. Nature protocols 2006, 1 (3), 1458-1461].
To study cell cycle stage, adherent and detached cells were collected by trypsinization and centrifuged at 800×g for 15 min. Cells were washed twice with ice-cold PBS and fixed with slow addition of ice-cold 70% ethanol overnight at −20° C. Fixed cells were centrifuged at 800×g for 15 min and the pellet was re-suspended in 400 μL PBS and transferred to LP5 FACS tubes then stained with 50 μg/mL of PI, containing 50 μg/mL of DNase-free RNase A (to degraded any double strand RNA present), at 37° C. for 30 min. The DNA content of cells (10,000 cells/experimental group) was analyzed by flow cytometer at 488 nm using a FACSCalibur flow cytometer (BD Biosciences, San Jose, Calif.).
In general, G2/M cell cycle arrest is strongly associated with inhibition of tubulin polymerization. The effect of KX-01 analogue, KAC-3, was investigated with colon cancer HCT-116 cells by flow cytometry at two concentrations (5 μM and 10 μM) for 24 and 48 hours. […] The percentage of cells in G2/M phase after 24 h was 13.3% and 41.7% at concentrations of 5 μM and 10 μM, respectively compared to the control (9.0%) (see FIG. 9). […] The cell cycle analysis results for KAC-3 are typical for tubulin targeting agents, which characteristically cause G2/M blockade followed by apoptosis [Perez, E. A., Microtubule inhibitors: Differentiating tubulin-inhibiting agents based on mechanisms of action, clinical activity, and resistance. Molecular cancer therapeutics 2009, 8 (8), 2086-2095]. […] Cancer research and treatment: official journal of Korean Cancer Association 2017, 49 (3), 643-655; and Anbalagan, M.; Carrier, L.; Glodowski, S.; Hangauer, D.; Shan, B.; Rowan, B. G., KX-01, a novel Src kinase inhibitor directed toward the peptide substrate site, synergizes with tamoxifen in estrogen receptor a positive breast cancer. Breast cancer research and treatment 2012, 132 (2), 391-409]. […] Frontiers in pharmacology 2017, 8, 244].

N87 stomach cancer cells = assay: MTT cytotoxicity assay against N87 cells; assay type: cell-based, human
Procedure: Cytotoxicity of all the compounds against N87 cells was determined using MTT assay. Briefly, 25,000 cells suspended in 0.1 mL of cell culture media were added in each well of a 96-well plate. After allowing the cells to attach for 24 h, media was aspirated from all the wells, and different concentrations of anticancer compounds in cell culture media were added to the wells in triplicate. Six wells were incubated with drug free media, and used as control. 96 hours after the treatment, 25 μL of MTT solution (5 mg/mL in phosphate saline buffer, pH 7.4) was added to each well, and the plate was incubated for 4.5 hours at 37° C. in the incubator. After incubation, 100 μL of 10% SDS in 0.01 M hydrochloric acid was added to each well, and the plate was incubated overnight at 37° C. The next day absorbance was determined in each well at 590 nm using a plate reader. IC50 value of each compound was determined using GraphPad Prism.

MCF7 breast cancer cells = assay: MTT viability assay against MCF7 cells; assay type: cell-based, human
Procedure: as §1

[2] = system: MDA-MB-231 and BT-549 and MDA-MB-468 cells; settings: MDA-MB-231, BT-549, MDA-MB-468 cells; literature; cited from earlier work
HL-60 leukemia cells = assay: CellTiter-Blue cell viability assay against HL-60 cells; assay type: cell-based; settings: Homo sapiens, HL-60, 48 h, leukemia cells HL60, CellTiter-Blue
Procedure: HL-60 cells were purchased from CLS Cell Line Service GmbH (Eppelheim, Germany) and cultured in Roswell Park Memorial Institute-1640 medium (RPMI-1640; Thermo Fisher Scientific, Inc; Waltham, Mass., USA) supplemented with 10% fetal bovine serum (FBS; Thermo Fisher Scientific) and ciprofloxacin (10 μg/ml; Cipla Limited; Mumbai, India), at 37° C. with 5% CO2 in a humidified incubator.
The CellTiter®-Blue Cell Viability assay was acquired from Promega Corporation (Madison, Wis., USA). Cell viability assay was performed as follows. The cells (10^4/well) were incubated with KAC-12 at a concentration gradient ranging from 0.01 to 100 μM, in 96-well plates for 48 h at 37° C. Subsequently, 20 μL of CellTiter®-Blue Cell Viability reagent was added to each well and incubated for an additional 2 h for the development of fluorescence. The fluorescence emission was measured at 590 nm using the SpectraMax® i3x Multi-Mode microplate reader (Molecular Devices, LLC; San Jose, Calif., USA.) and plotted against drug concentrations to determine the mean inhibitory concentration of KAC-12 producing 50% decrease in cell viability (IC50).

Compound	IC50 ([1]; Homo sapiens, HCT-116, 27 h)	IC50 (N87 stomach cancer cells; Homo sapiens, 96 h)	IC50 (MCF7 breast cancer cells; Homo sapiens, MCF7, 27 h)	other results
Cc1ccc(S(=O)(=O)Nc2ccc(CC(=O)NCc3ccccc3)cc2)cc1 [KAC-10, N-benzyl-2-(4-((4-methylphenyl)sulfonamido)phenyl)acetamide]	22.7 µM			
CC(=O)O[C@H]1C(=O)[C@@]2(C)[C@H]([C@H](OC(=O)c3ccccc3)[C@]3(O)C[C@H](OC(=O)[C@H](O)[C@@H](NC(=O)c4ccccc4)c4ccccc4)C(C)=C1C3(C)C)[C@]1(OC(C)=O)CO[C@@H]1C[C@@H]2O [Paclitaxel, reference compound]				cell cycle effect (HCT-116 cells): no significant difference in the other cell cycle phases; apoptosis (HCT-116 cells): 7.7%
O=C(Cc1ccc(NC(=O)c2ccccc2C(=O)N2CCOCC2)cc1)NCc1ccccc1 [KAC-03, N-(4-(2-(benzylamino)-2-oxoethyl)phenyl)-2-(morpholine-4-carbonyl)benzamide]	4.8 µM	18.2 µM	3.5 µM	percentage of cells in G2/M phase (HCT-116 cells; HCT-116, 5 μM): 13.3%; cells in G2/M phase (HCT-116 cells; HCT-116, 5 μM): 30.7%; apoptosis, population in the sub-G1 phase (HCT-116 cells; HCT-116, 5 μM): 8.7%; percentage of cells in G2/M phase (HCT-116 cells; HCT-116, 10 μM): 41.7%; cells in G2/M phase (HCT-116 cells; HCT-116, 10 μM): 32.8%; apoptosis, population in the sub-G1 phase (HCT-116 cells; HCT-116, 10 μM): 11.6%; cell cycle effect (HCT-116 cells): significant G2/M arrest in a time- and concentration-dependent manner; IC50 ([1]; 27 h): 4.76 µM
Cc1ccc(NC(=O)c2ccc(CN3CCN(C)CC3)cc2)cc1Nc1nccc(-c2cccnc2)n1 [imatinib, reference compound]				cell cycle effect (HCT-116 cells): no significant difference in the other cell cycle phases; apoptosis (HCT-116 cells): 6.4%
CCC(=O)Nc1ccc(CC(=O)NCc2ccccc2)cc1 [KAC-09, N-(4-(2-(benzylamino)-2-oxoethyl)phenyl)propionamide]	> 50 µM	7.2 µM	37 µM	IC50 (N87 stomach cancer cells; 96 hours): 7.24 µM; IC50 (MCF7 breast cancer cells; 27 h): 37 µM
CCN(CC)C(=O)c1ccccc1-c1ccccc1C(=O)Nc1ccc(CC(=O)NCc2ccccc2)cc1 [KAC-07, N^2-(4-(2-(benzylamino)-2-oxoethyl)phenyl)-N^2′,N^2′-diethyl-[1,1′-biphenyl]-2,2′-dicarboxamide]		> 50 µM	> 50 µM	
CCN(CC)C(=O)c1ccccc1C(=O)Nc1ccc(CC(=O)NCc2ccccc2)cc1 [KAC-04, N^1-(4-(2-(benzylamino)-2-oxoethyl)phenyl)-N^2,N^2-diethylphthalamide]		> 50 µM	> 50 µM	
O=C(Cc1ccc(NC(=O)c2cccc(Cl)c2)cc1)NCc1ccc(F)cc1 [KAC-16, 3-Chloro-N-(4-(2-((4-fluorobenzyl)amino)-2-oxoethyl)phenyl)benzamide]	> 50 µM			
O=C(Cc1ccc(-c2ccc(OCCN3CCOCC3)cc2)cn1)NCc1ccccc1 [KX-01]				cell cycle effect [2]: induced significant G2M phase arrest
CC(=O)Nc1ccc(CC(=O)NCc2ccccc2)cc1 [KAC-01, 2-(4-acetamidophenyl)-N-benzylacetamide]	18.8 µM	> 50 µM	29.3 µM	IC50 ([1]; 27 h): 18.8 µM
O=C(Cc1ccc(NC(=O)c2cccc(Cl)c2)cc1)NCCc1ccccc1 [KAC-17, 3-Chloro-N-(4-(2-oxo-2-(phenethylamino)ethyl)phenyl)benzamide]	25.9 µM			
O=C(Cc1ccc(NC(=O)c2ccccc2C(=O)N2CCCCC2)cc1)NCc1ccccc1 [KAC-02, N-(4-(2-(benzylamino)-2-oxoethyl)phenyl)-2-(piperidine-1-carbonyl)benzamide]			9.48 µM	
Nc1ccc(CC(=O)NCc2ccccc2)cc1 [KAC-14, 2-(4-aminophenyl)-N-benzylacetamide]	> 50 µM	> 50 µM		IC50 HCT116 ([1]; 27 h): did not affect any of the tested cell lines; IC50 (HL-60 leukemia cells): > 50 µM
O=C(Cc1ccc(NC(=O)c2ccccc2-c2ccccc2C(=O)N2CCOCC2)cc1)NCc1ccccc1 [KAC-06, N-(4-(2-(benzylamino)-2-oxoethyl)phenyl)-2′-(morpholine-4-carbonyl)-[1,1′-biphenyl]-2-carboxamide]	30.6 µM	> 50 µM	34.9 µM	
O=C(Cc1ccc(NC(=O)c2ccccc2)cc1)NCc1ccccc1 [KAC-08, N-(4-(2-(benzylamino)-2-oxoethyl)phenyl)benzamide]	19.7 µM	> 50 µM	2.6 µM	IC50 ([1]; 27 h): 19.7 µM; IC50 N87 (N87 stomach cancer cells; 96 hours): much weaker; IC50 (MCF7 breast cancer cells; 27 h): 2.63 µM
O=C(Cc1ccc(NC(=O)c2ccccc2-c2ccccc2C(=O)N2CCCCC2)cc1)NCc1ccccc1 [KAC-05, N-(4-(2-(benzylamino)-2-oxoethyl)phenyl)-2′-(piperidine-1-carbonyl)-[1,1′-biphenyl]-2-carboxamide]	> 50 µM		44.2 µM	
O=C(Cc1ccc(NC(=O)c2cccc(Cl)c2)cc1)NCc1ccco1 [KAC-18, 3-Chloro-N-(4-(2-((furan-2-ylmethyl)amino)-2-oxoethyl)phenyl)benzamide]	23.9 µM			
COc1ccc(CNC(=O)Cc2ccc(NC(=O)c3cccc(Cl)c3)cc2)cc1 [KAC-15, 3-Chloro-N-(4-(2-((4-methoxybenzyl)amino)-2-oxoethyl)phenyl)benzamide]	> 50 µM			
